Assay [1] deals with ERK5. Briefly: ERK5 immunoprecipitation kinase assay (GST-MEF2C substrate) after treatment of cardiomyocytes. The settings on record: at 60 min; 0.3M sorbitol or 200 μM H2O2; serum-deprived neonatal rat cardiomyocytes. The format is cell-based.
Description: Top, ERK5 was immunoprecipitated from 200 μg of cellular lysate with an antibody specific for the carboxyl-terminal 20 amino acids. Kinase assays were performed with immunoprecipitated ERK5 using GST-MEF2C substrate in the presence of [γ-^32P]-ATP. GST-MEF2C phosphorylation was detected by autoradiography after SDS-PAGE. Middle, immunoblotting was performed on immunoprecipitated material using rabbit anti-ERK5 antibody. Bottom, levels of ^32P-phosphorylated GST-MEF2C were quantitated with a Phosphor Imager.
Following incubation for 30 min at 30° C., samples were separated by SDS-PAGE and transferred to a polyvinylidene difluoride (PVDF) membrane. The level of ^32P-labeled GST-fusion protein on the membrane was analyzed using a Phosphor Imager (Molecular Dynamics). The membrane was then immunoblotted with anti-ERK5 rabbit polyclonal antibody (StressGen) at a final concentration of 150 ng/ml and proteins were visualized using a chemiluminescence system (Santa Cruz).
Eighteen hours after plating, cells were changed into serum-free media and either incubated for an additional forty-eight hours prior to treatment with hypertrophic agents or infected with adenovirus at a multiplicity of infection of 100.
Following treatment, cardiomyocytes were harvested and ERK5 immunoprecipitation (IP) kinase assays were performed with a GST-MEF2C substrate.
The test system of assay [2] is ERK5. The settings on record: Kamakura et al., 1999; cited from earlier work.
For assay [3], the system named is neonatal rat cardiomyocytes. The assay can be described thus: Morphometric analysis of cardiomyocytes (anti-sarcomeric α-actinin staining). Set-up: Area / Major axis / Minor axis / Major/Minor: dose or concentration left out as unconfirmed. Type of assay: cell-based. The settings on record: for Area / Major axis / Major/Minor / Minor axis: virus moi 100, PE or LIF (1000 units/ml) where indicated, mean ± SD.

The test system of another assay is skeletal α-actin. The assay can be described thus: RNA dot blot, fetal gene expression in cardiomyocytes: skeletal α-actin. Type of assay: cell-based. The settings on record: Rattus norvegicus, Cardiomyocyte; Adβ-gal-infected cells treated with LIF (1000 units/ml) or PE (50 μM) 24 hours; relative to uninfected untreated cells. As to the method: FIGS. 4A-B. MEK5 signaling contributes to the regulation of cardiomyocyte fetal gene expression by PE and LIF. (FIG. 4A) Cardiomyocytes were either not infected (−) or infected with MEK5WT, MEK5KM or β-gal adenoviruses at an moi of 20 and serum-deprived. Thirty-six hours post-infection, cells were either not treated or treated with 50 μM PE (black bar) or 1000 units/ml LIF (white bar) for an additional 24 hours. RNA was prepared and used for dot blots with oligonucleotide probes specific for skeletal α-actin, ANF or BNP. Signal intensity was quantitated using a Phosphor Imager. The average fold induction±SD of three independent experiments is shown. “-fold” induction is relative to uninfected cells without PE or LIF treatment. (FIG. 4B) Cardiomyocytes were either not infected or infected with MEK5DD or β-gal adenoviruses at an moi of 20 and serum-deprived. Forty-eight hours post-infection, the cells were harvested and RNA was prepared. Transcript levels for α-skeletal actin, ANF or BNP were determined as described in FIG. 4A. […]
To determine whether elevated MEK5 could also transduce signals that regulate fetal gene expression, the inventors treated cardiomyocytes infected with AdMEK5WT, AdMEK5KM or Ad[…]-gal with LIF or PE and analyzed expression of atrial natriuretic factor (ANF), brain natriuretic peptide (BNP) and skeletal α-actin (FIG. 4A). […]

Take `OO` [H2O2]: the “activation of ERK5 (phosphorylation of GST-MEF2C)” value with ERK5 [1] is on record as 5 fold.

On to `COc1cccc(-c2cc(=O)c3ccccc3o2)c1N` [PD098059], for which the “inhibition of activation of ERK5” value with ERK5 [2] is reported as “inhibit activation of ERK5”.

In assay [3], `CNC[C@H](O)c1cccc(O)c1` [PE, phenylephrine] returned an Area of 5745 ± 1560 μm^2, a Major axis of 110 ± 20 μm, a Major/Minor of 1.71 ± 0.37 and a Minor axis of 66 ± 12 μm. In the assay with skeletal α-actin, this molecule returned a fold induction at 50 µM of 4 to 5.

`N#CC(=C(/N)Sc1ccccc1N)/C(C#N)=C(\N)Sc1ccccc1N` [U0126]: the “inhibition of activation of ERK5” value with ERK5 [2] was “inhibit activation of ERK5”.

For `OC[C@@H](O)[C@@H](O)[C@H](O)[C@@H](O)CO` [sorbitol], the “activation of ERK5 (phosphorylation of GST-MEF2C)” value in the assay on ERK5 [1] worked out at 8 fold.

In assay [3], “LIF: IL-6 family cytokine, leukemia inhibitory factor” showed an Area of 3586 ± 1090 μm^2, a Major axis of 144 ± 36 μm, a Major/Minor of 5.06 and a Minor axis of 33 ± 12 μm. Besides, in assay [3] (α-actinin staining), the “cardiomyocyte elongation (morphology)” value is “induced dramatic elongation”.

Usually fold induction stands for the signal under treatment as a multiple of the control signal.

The values above are taken from patent US6924415B2 (Board of Regents, The University of Texas System, priority 2001, dated 2005).
